This passage reports 3 h FOB score results from the OligoGym collection.

HELM strings list units from the 5' end as sugar, base in round brackets, then linkage (d deoxyribose, r ribose, m 2'-O-methyl, p phosphodiester). Strings are as the collection lists them; they lack the last nucleoside at the 3' end of the tested compound. [moe] = 2'-O-(2-methoxyethyl) (MOE); [sp] = phosphorothioate linkage; [m5C] = 5-methylcytosine

In the data set the target is ATXN2. Put plainly: mouse, dose not given. The following applies: ASO.

The substance “RNA1{[moe]([m5C])[sp].[moe](T)[sp].[moe](G)[sp].[moe](G)[sp].[moe](T)[sp].d(A)[sp].d([m5C])[sp].d(A)[sp].d(G)[sp].d(T)[sp].d(T)[sp].d(G)[sp].d([m5C])[sp].d(T)[sp].d(G)[sp].[moe]([m5C])[sp].[moe](T)[sp].[moe](G)[sp].[moe]([m5C])}$$$$ (last 3' nucleoside missing)” showed a 3 h FOB score of 7 score 0-7.

For the substance “RNA1{[moe](G)[sp].[moe]([m5C])p.[moe](T)p.[moe](G)p.[moe](T)p.d(G)[sp].d(T)[sp].d(A)[sp].d(T)[sp].d(T)[sp].d(T)[sp].d(T)[sp].d(T)[sp].d([m5C])[sp].d(T)[sp].[moe](T)p.[moe]([m5C])p.[moe]([m5C])[sp].[moe](T)}$$$$ (last 3' nucleoside missing)”, the 3 h FOB score amounted to 0 score 0-7.

“RNA1{[moe](G)[sp].[moe](A)p.[moe](A)p.[moe]([m5C])p.[moe]([m5C])p.d(A)[sp].d(G)[sp].d(A)[sp].d(A)[sp].d(T)[sp].d(T)[sp].d([m5C])[sp].d(G)[sp].d(G)[sp].d(G)[sp].[moe](T)p.[moe](T)p.[moe](G)[sp].[moe](A)}$$$$ (last 3' nucleoside missing)” showed a 3 h FOB score of 3.75 score 0-7.

“RNA1{[moe]([m5C])[sp].[moe](T)p.[moe]([m5C])p.[moe](T)p.[moe]([m5C])[sp].d([m5C])[sp].d(A)[sp].d(T)[sp].d(T)[sp].d(A)[sp].d(T)[sp].d(T)[sp].d(T)[sp].[moe]([m5C])p.[moe](T)p.[moe](T)[sp].[moe]([m5C])}$$$$ (last 3' nucleoside missing)” came in with a 3 h FOB score of 0 score 0-7.

For “RNA1{[moe](G)[sp].[moe]([m5C])p.[moe](T)p.[moe](T)p.[moe](A)p.d(G)[sp].d(A)[sp].d(G)[sp].d(T)[sp].d(T)[sp].d(T)[sp].d(T)[sp].d(T)[sp].d(G)[sp].d([m5C])[sp].[moe]([m5C])p.[moe](T)p.[moe](T)[sp].[moe]([m5C])}$$$$ (last 3' nucleoside missing)”, the 3 h FOB score amounted to 4 score 0-7.

“RNA1{[moe]([m5C])[sp].[moe](T)p.[moe](T)p.[moe](G)p.[moe](T)p.d(T)[sp].d(G)[sp].d(T)[sp].d(T)[sp].d(G)[sp].d(T)[sp].d(T)[sp].d(T)[sp].d(A)[sp].d([m5C])[sp].[moe](A)p.[moe](T)p.[moe](T)[sp].[moe](A)}$$$$ (last 3' nucleoside missing)”: the 3 h FOB score came out at 3 score 0-7.

“RNA1{[moe](G)[sp].[moe](A)p.[moe](A)p.[moe]([m5C])p.[moe](A)p.d([m5C])[sp].d([m5C])[sp].d(A)[sp].d(T)[sp].d(G)[sp].d(A)[sp].d([m5C])[sp].d(T)[sp].d(G)[sp].d(A)[sp].[moe](T)p.[moe]([m5C])p.[moe]([m5C])[sp].[moe]([m5C])}$$$$ (last 3' nucleoside missing)” registered a 3 h FOB score of 4 score 0-7.

Regarding “RNA1{[moe](G)[sp].[moe](T)p.[moe](G)p.[moe](T)p.[moe](T)p.d([m5C])[sp].d(A)[sp].d(T)[sp].d(G)[sp].d(A)[sp].d([m5C])[sp].d(T)[sp].d(T)[sp].d(T)[sp].d([m5C])[sp].[moe](A)p.[moe](A)p.[moe](G)[sp].[moe](G)}$$$$ (last 3' nucleoside missing)”, the 3 h FOB score was determined as 3.5 score 0-7.

Take “RNA1{[moe](G)[sp].[moe](T)p.[moe](G)p.[moe](A)p.[moe](T)p.[moe](G)p.d(T)[sp].d(T)[sp].d(T)[sp].d([m5C])[sp].d(A)[sp].d(T)[sp].d(T)[sp].d(G)[sp].d(G)[sp].d(G)[sp].[moe](T)p.[moe](T)[sp].[moe](T)}$$$$ (last 3' nucleoside missing)”: the 3 h FOB score came to 4 score 0-7.

As to “RNA1{[moe](T)[sp].[moe](G)p.[moe](G)p.[moe](A)p.[moe](T)p.d(T)[sp].d([m5C])[sp].d(T)[sp].d(G)[sp].d(T)[sp].d(A)[sp].d([m5C])[sp].d(T)[sp].d(T)[sp].d(T)[sp].[moe](T)p.[moe]([m5C])p.[moe](T)[sp].[moe]([m5C])}$$$$ (last 3' nucleoside missing)”, the 3 h FOB score was determined as 5.25 score 0-7.

On to “RNA1{[moe](T)[sp].[moe]([m5C])p.[moe]([m5C])p.[moe](T)p.[moe](A)p.d(T)[sp].d([m5C])[sp].d(A)[sp].d(T)[sp].d([m5C])[sp].d(A)[sp].d(T)[sp].d(T)[sp].d(T)[sp].d(T)[sp].[moe]([m5C])p.[moe]([m5C])p.[moe](A)[sp].[moe](G)}$$$$ (last 3' nucleoside missing)”, for which the 3 h FOB score was 3.75 score 0-7.

As for “RNA1{[moe](G)[sp].[moe](T)[sp].[moe](G)[sp].[moe](G)[sp].[moe](G)[sp].d(A)[sp].d(T)[sp].d(A)[sp].d([m5C])[sp].d(A)[sp].d(A)[sp].d(A)[sp].d(T)[sp].d(T)[sp].d([m5C])[sp].[moe](T)[sp].[moe](A)[sp].[moe](G)[sp].[moe](G)}$$$$ (last 3' nucleoside missing)”, the 3 h FOB score was found to be 7 score 0-7.

For the substance “RNA1{[moe](G)[sp].[moe](T)p.[moe](T)p.[moe](A)p.[moe]([m5C])p.[moe](T)p.d(G)[sp].d(T)[sp].d(T)[sp].d(T)[sp].d([m5C])[sp].d(G)[sp].d(A)[sp].d([m5C])[sp].d([m5C])[sp].d(T)[sp].[moe]([m5C])p.[moe](T)[sp].[moe](G)}$$$$ (last 3' nucleoside missing)”, the 3 h FOB score is 5 score 0-7.

Turning to “RNA1{[moe](A)[sp].[moe]([m5C])p.[moe](A)p.[moe]([m5C])p.d(A)[sp].d(G)[sp].d(T)[sp].d(T)[sp].d(T)[sp].d([m5C])[sp].d(A)[sp].d([m5C])[sp].d(T)[sp].d(A)[sp].[moe](G)p.[moe](G)p.[moe](T)p.[moe](T)[sp].[moe]([m5C])}$$$$ (last 3' nucleoside missing)”, the 3 h FOB score was found to be 0 score 0-7.

For “RNA1{[moe](G)[sp].[moe](T)p.[moe](G)p.[moe](T)p.[moe](T)p.d([m5C])[sp].d(A)[sp].d(G)[sp].d(T)[sp].d(A)[sp].d(T)[sp].d(A)[sp].d(G)[sp].d(A)[sp].d(T)[sp].[moe](T)p.[moe](A)p.[moe](T)[sp].[moe]([m5C])}$$$$ (last 3' nucleoside missing)”, the 3 h FOB score was 3.75 score 0-7.

In the case of “RNA1{[moe](A)[sp].[moe](A)p.[moe](G)p.[moe](A)p.[moe](A)p.d(T)[sp].d([m5C])[sp].d([m5C])[sp].d(T)[sp].d(T)[sp].d(A)[sp].d(G)[sp].d([m5C])[sp].d(A)[sp].d([m5C])[sp].[moe](T)p.[moe](T)p.[moe](G)[sp].[moe](G)}$$$$ (last 3' nucleoside missing)”, the 3 h FOB score stood at 6.25 score 0-7.

As to “RNA1{[moe](G)[sp].[moe]([m5C])p.[moe](A)p.[moe](T)p.[moe]([m5C])p.d(A)[sp].d(T)[sp].d(T)[sp].d(A)[sp].d([m5C])[sp].d(G)[sp].d(A)[sp].d([m5C])[sp].d([m5C])[sp].d(A)[sp].[moe](T)p.[moe](T)p.[moe]([m5C])[sp].[moe](T)}$$$$ (last 3' nucleoside missing)”, the 3 h FOB score is 4 score 0-7.

“RNA1{[moe](G)[sp].[moe](T)p.[moe](A)p.[moe]([m5C])p.[moe](T)p.d(T)[sp].d(T)[sp].d(T)[sp].d([m5C])[sp].d(T)[sp].d([m5C])[sp].d(A)[sp].d(T)[sp].d(G)[sp].d(T)[sp].[moe](G)p.[moe]([m5C])p.[moe](G)[sp].[moe](G)}$$$$ (last 3' nucleoside missing)”: the 3 h FOB score was 1 score 0-7.

For “RNA1{[moe](A)[sp].[moe]([m5C])p.[moe](T)p.[moe](T)p.d([m5C])[sp].d(T)[sp].d([m5C])[sp].d(T)[sp].d(A)[sp].d(T)[sp].d(T)[sp].d(T)[sp].d([m5C])[sp].d(T)[sp].[moe](T)p.[moe](T)p.[moe](G)p.[moe](T)[sp].[moe]([m5C])}$$$$ (last 3' nucleoside missing)”, the 3 h FOB score is 0 score 0-7.

For the substance “RNA1{[moe](T)[sp].[moe](A)p.[moe](T)p.[moe]([m5C])p.[moe](A)p.d(T)[sp].d([m5C])[sp].d(A)[sp].d(T)[sp].d(T)[sp].d(T)[sp].d(T)[sp].d([m5C])[sp].d([m5C])[sp].d(A)[sp].[moe](G)p.[moe](G)p.[moe](G)[sp].[moe]([m5C])}$$$$ (last 3' nucleoside missing)”, the 3 h FOB score turned out to be 4.75 score 0-7.

“RNA1{[moe]([m5C])[sp].[moe](T)p.[moe](A)p.[moe](T)p.[moe]([m5C])p.d(A)[sp].d(T)[sp].d([m5C])[sp].d(A)[sp].d(T)[sp].d(T)[sp].d(T)[sp].d(T)[sp].d([m5C])[sp].d([m5C])[sp].[moe](A)p.[moe](G)p.[moe](G)[sp].[moe](G)}$$$$ (last 3' nucleoside missing)” returned a 3 h FOB score of 1 score 0-7.

As for “RNA1{[moe]([m5C])[sp].[moe](T)p.[moe](A)p.[moe](T)p.[moe]([m5C])[sp].d(A)[sp].d(T)[sp].d([m5C])[sp].d(A)[sp].d(T)[sp].d(T)[sp].d(T)[sp].d(T)[sp].[moe]([m5C])p.[moe]([m5C])p.[moe](A)[sp].[moe](G)}$$$$ (last 3' nucleoside missing)”, the 3 h FOB score was 1 score 0-7.

Consider “RNA1{[moe](T)[sp].[moe](G)p.[moe](G)p.[moe](T)p.[moe](G)p.[moe](G)p.d(T)[sp].d(G)[sp].d(T)[sp].d(G)[sp].d([m5C])[sp].d(G)[sp].d([m5C])[sp].d(A)[sp].d(T)[sp].d(G)[sp].[moe](T)p.[moe](A)[sp].[moe](G)}$$$$ (last 3' nucleoside missing)”, for which the 3 h FOB score turned out to be 7 score 0-7.

Take “RNA1{[moe](T)[sp].[moe](T)p.[moe](A)p.[moe](G)p.[moe](A)[sp].d(G)[sp].d(T)[sp].d(T)[sp].d(T)[sp].d(T)[sp].d(T)[sp].d(G)[sp].d([m5C])[sp].[moe]([m5C])p.[moe](T)p.[moe](T)[sp].[moe]([m5C])}$$$$ (last 3' nucleoside missing)”: the 3 h FOB score was 5.5 score 0-7.

In the case of “RNA1{[moe](A)[sp].[moe](G)p.[moe]([m5C])p.[moe](T)p.[moe]([m5C])p.d(A)[sp].d(T)[sp].d([m5C])[sp].d(A)[sp].d(A)[sp].d(G)[sp].d(G)[sp].d(T)[sp].d(A)[sp].d([m5C])[sp].[moe]([m5C])p.[moe](A)p.[moe](G)[sp].[moe](T)}$$$$ (last 3' nucleoside missing)”, the 3 h FOB score was determined as 4 score 0-7.
